The CheMixHub viscosity set
± gives the uncertainty stated by the source.

Experiment: xn = mol fraction of the nth substance listed

C=CC#N + C1CCCCC1
307.4 K, 101.33 kPa
Conditions | viscosity [mPa·s]
x2 = 0.0861 | 0.66 ± 0.01
x2 = 0.2848 | 0.53 ± 0.01
x2 = 0.5332 | 0.419 ± 0.004
x2 = 0.544 | 0.396 ± 0.004
x2 = 0.7114 | 0.359 ± 0.003
x2 = 0.8989 | 0.318 ± 0.003

CCCCN(CCCC)CCCC + C1CCCCC1
viscosity [mPa·s], 101 kPa
Conditions | 303.15 K | 313.15 K
x1 = 0.0103 | 0.8168 ± 0.0056 | 0.7154 ± 0.0051
x1 = 0.0216 | 0.816 ± 0.0056 | 0.7139 ± 0.0051
x1 = 0.03178 | 0.8153 ± 0.0056 | 0.7132 ± 0.0051
x1 = 0.04023 | 0.8141 ± 0.0056 | 0.7121 ± 0.0051
x1 = 0.05159 | 0.8132 ± 0.0057 | 0.7111 ± 0.0051
x1 = 0.05978 | 0.8121 ± 0.0057 | 0.7102 ± 0.0051
x1 = 0.0709 | 0.8113 ± 0.0057 | 0.709 ± 0.0051
x1 = 0.0807 | 0.81 ± 0.0057 | 0.7078 ± 0.0051
x1 = 0.08607 | 0.8086 ± 0.0057 | 0.7065 ± 0.0051
x2 = 0.1133 | 1.125 ± 0.023 | –
x2 = 0.1972 | 1.125 ± 0.023 | –
x2 = 0.402 | 1.021 ± 0.021 | –
x2 = 0.499 | 0.987 ± 0.02 | –
x2 = 0.5952 | 0.951 ± 0.019 | –
x2 = 0.7042 | 0.911 ± 0.018 | –
x2 = 0.8018 | 0.875 ± 0.018 | –
x2 = 0.9005 | 0.845 ± 0.017 | –

CC(C)(C)Cl + C1CCOC1
101 kPa
Conditions | viscosity [mPa·s]
298.15 K, x2 = 0.0634 | 0.4743 ± 0.0055
298.15 K, x2 = 0.1288 | 0.4733 ± 0.0055
298.15 K, x2 = 0.2423 | 0.4718 ± 0.0054
298.15 K, x2 = 0.3198 | 0.4705 ± 0.0054
298.15 K, x2 = 0.4555 | 0.4684 ± 0.0053
298.15 K, x2 = 0.5341 | 0.4673 ± 0.0053
298.15 K, x2 = 0.6598 | 0.4656 ± 0.0052
298.15 K, x2 = 0.7441 | 0.4647 ± 0.0052
298.15 K, x2 = 0.8407 | 0.4639 ± 0.0052
298.15 K, x2 = 0.8916 | 0.4636 ± 0.0052
298.15 K, x2 = 0.961 | 0.4633 ± 0.0051
313.15 K, x2 = 0.0557 | 0.3913 ± 0.0052
313.15 K, x2 = 0.0959 | 0.3917 ± 0.0051
313.15 K, x2 = 0.1963 | 0.3928 ± 0.0051
313.15 K, x2 = 0.296 | 0.3935 ± 0.0051
313.15 K, x2 = 0.3892 | 0.394 ± 0.0051
313.15 K, x2 = 0.521 | 0.3945 ± 0.005
313.15 K, x2 = 0.5951 | 0.3946 ± 0.005
313.15 K, x2 = 0.6368 | 0.3947 ± 0.005
313.15 K, x2 = 0.8089 | 0.3951 ± 0.0049
313.15 K, x2 = 0.9009 | 0.3959 ± 0.0049
313.15 K, x2 = 0.9526 | 0.3968 ± 0.0049

CC(C)(N)CO + C1CNCCN1
viscosity [mPa·s], 101 kPa
Conditions | x2 = 0.02 | x2 = 0.04 | x2 = 0.06 | x2 = 0.08 | x2 = 0.1 | x2 = 0.12 | x2 = 0.14 | x2 = 0.16 | x2 = 0.18
303.15 K | 95.41 ± 4 | 91.27 ± 3.8 | 86.75 ± 3.6 | 83 ± 3.4 | 79.54 ± 3.3 | 76.81 ± 3.2 | 74.64 ± 3.1 | 71.81 ± 2.9 | 71 ± 2.9
313.15 K | 43.72 ± 1.8 | 41.54 ± 1.7 | 38.97 ± 1.6 | 37.34 ± 1.5 | 36.06 ± 1.5 | 35.06 ± 1.4 | 34.1 ± 1.4 | 33.76 ± 1.4 | 33.69 ± 1.4
323.15 K | 24.41 ± 1 | 23.46 ± 0.96 | 22.58 ± 0.93 | 21.64 ± 0.89 | 20.53 ± 0.84 | 19.63 ± 0.81 | 18.74 ± 0.77 | 17.8 ± 0.73 | 17.07 ± 0.7

[2H]O[2H] + C1COCCO1
viscosity [mPa·s], 101 kPa
Conditions | 303.1 K | 313.1 K | 323.1 K
x1 = 0.1561 | 1.112 ± 0.018 | 0.944 ± 0.016 | 0.817 ± 0.014
x1 = 0.1831 | 1.154 ± 0.018 | 0.972 ± 0.016 | 0.831 ± 0.014
x1 = 0.3467 | 1.317 ± 0.02 | 1.092 ± 0.017 | 0.918 ± 0.015
x1 = 0.522 | 1.585 ± 0.024 | 1.289 ± 0.02 | 1.06 ± 0.017
x1 = 0.5977 | 1.728 ± 0.025 | 1.378 ± 0.021 | 1.128 ± 0.018
x1 = 0.6534 | 1.836 ± 0.027 | 1.447 ± 0.022 | 1.172 ± 0.018
x1 = 0.7431 | 1.968 ± 0.029 | 1.529 ± 0.023 | 1.233 ± 0.019
x1 = 0.8126 | 1.959 ± 0.029 | 1.52 ± 0.023 | 1.213 ± 0.019
x1 = 0.8683 | 1.754 ± 0.026 | 1.367 ± 0.021 | 1.098 ± 0.017
x1 = 0.9108 | 1.528 ± 0.023 | 1.199 ± 0.019 | 0.97 ± 0.016
x1 = 0.9466 | 1.321 ± 0.021 | 1.047 ± 0.017 | 0.853 ± 0.015
x1 = 0.9747 | 1.131 ± 0.018 | 0.905 ± 0.015 | 0.742 ± 0.013

CCCCC(C)CC (configuration not stated) + C1C[C@@H]2[C@H]3CC[C@H](C3)[C@@H]2C1
viscosity [mPa·s], 100 kPa
Conditions | x2 = 0.0994 | x2 = 0.2004 | x2 = 0.2996 | x2 = 0.4001 | x2 = 0.5008 | x2 = 0.5973 | x2 = 0.6998 | x2 = 0.8016 | x2 = 0.8999
293.15 K | 0.577 ± 0.013 | 0.657 ± 0.014 | 0.755 ± 0.016 | 0.882 ± 0.019 | 1.044 ± 0.023 | 1.249 ± 0.027 | 1.521 ± 0.033 | 1.882 ± 0.041 | 2.336 ± 0.051
298.15 K | 0.547 ± 0.012 | 0.62 ± 0.013 | 0.708 ± 0.015 | 0.824 ± 0.018 | 0.971 ± 0.021 | 1.154 ± 0.025 | 1.399 ± 0.031 | 1.722 ± 0.038 | 2.125 ± 0.046
303.15 K | 0.519 ± 0.011 | 0.589 ± 0.013 | 0.667 ± 0.014 | 0.772 ± 0.017 | 0.905 ± 0.02 | 1.065 ± 0.023 | 1.294 ± 0.028 | 1.585 ± 0.035 | 1.945 ± 0.043
308.15 K | 0.495 ± 0.011 | 0.557 ± 0.012 | 0.63 ± 0.014 | 0.726 ± 0.016 | 0.848 ± 0.018 | 1 ± 0.022 | 1.201 ± 0.026 | 1.457 ± 0.032 | 1.788 ± 0.039
313.15 K | 0.472 ± 0.01 | 0.53 ± 0.012 | 0.597 ± 0.013 | 0.685 ± 0.015 | 0.796 ± 0.017 | 0.935 ± 0.02 | 1.118 ± 0.024 | 1.357 ± 0.03 | 1.65 ± 0.036

CCCCN(CCCC)CCCC + C=C(C)C(=O)OC
303.15 K, 101 kPa
Conditions | viscosity [mPa·s]
x2 = 0.21 | 0.9849 ± 0.0085
x2 = 0.3945 | 0.8491 ± 0.0076
x2 = 0.4886 | 0.7874 ± 0.0073
x2 = 0.6041 | 0.7144 ± 0.0068
x2 = 0.7985 | 0.6078 ± 0.0062

COC(C)OC + CC1COC(=O)O1
298.15 K, 101 kPa
Conditions | viscosity [mPa·s]
x2 = 0.1205 | 4.91
x2 = 0.2621 | 6.2
x2 = 0.3779 | 7.53
x2 = 0.4836 | 9.05 ± 4
x2 = 0.7185 | 13.82 ± 4

C=CC#N + CC#N
303.15 K, 101.3 kPa
Conditions | viscosity [mPa·s]
x1 = 0.0965 | 0.3219 ± 0.0031
x1 = 0.2002 | 0.3193 ± 0.0031
x1 = 0.2977 | 0.3185 ± 0.0031
x1 = 0.3966 | 0.3178 ± 0.0031
x1 = 0.4928 | 0.3169 ± 0.003
x1 = 0.5983 | 0.3154 ± 0.003
x1 = 0.6941 | 0.3147 ± 0.003
x1 = 0.7977 | 0.3136 ± 0.003
x1 = 0.8997 | 0.3124 ± 0.003

CCC(C)(C)O + CC#N
298.15 K, 101 kPa
Conditions | viscosity [mPa·s]
x1 = 0.1002 | 0.387 ± 0.059
x1 = 0.1989 | 0.45 ± 0.066
x1 = 0.2988 | 0.543 ± 0.077
x1 = 0.3988 | 0.667 ± 0.09
x1 = 0.4964 | 0.832 ± 0.11
x1 = 0.6004 | 1.069 ± 0.14
x1 = 0.6969 | 1.375 ± 0.17
x1 = 0.7994 | 1.832 ± 0.22
x1 = 0.8983 | 2.493 ± 0.29
x1 = 0.958 | 3.032 ± 0.35

CN(C)c1ccccc1 + CC(=O)CC(C)C
viscosity [mPa·s], 101 kPa
Conditions | 303.15 K | 308.15 K
x1 = 0.0745 | 0.632 ± 0.025 | 0.557 ± 0.023
x1 = 0.1256 | 0.711 ± 0.028 | 0.628 ± 0.025
x1 = 0.1856 | 0.8 ± 0.031 | 0.711 ± 0.028
x1 = 0.2652 | 0.906 ± 0.034 | 0.813 ± 0.031
x1 = 0.3202 | 0.971 ± 0.036 | 0.875 ± 0.033
x1 = 0.4012 | 1.052 ± 0.039 | 0.953 ± 0.036
x1 = 0.4852 | 1.108 ± 0.041 | 1.013 ± 0.038
x1 = 0.5612 | 1.143 ± 0.042 | 1.049 ± 0.039
x1 = 0.6504 | 1.165 ± 0.042 | 1.072 ± 0.039
x1 = 0.7214 | 1.167 ± 0.042 | 1.079 ± 0.04
x1 = 0.7958 | 1.168 ± 0.042 | 1.079 ± 0.04
x1 = 0.8625 | 1.169 ± 0.042 | 1.081 ± 0.04
x1 = 0.9125 | 1.17 ± 0.043 | 1.086 ± 0.04
